# What was measured:
# Format in all cases: cell-based
# [1] = target: T1, human recombinant prostanoid EP1 receptor (Homo sapiens, UniProt P34995); experiment: FLIPR Ca2+ signaling, PG antagonist activity, EP1; conditions: antagonism of standard agonist PGE2, HEK-293 EBNA stable cells
# T1 construct: expressed in transfected cells
# T1 sequence (P34995 1-402): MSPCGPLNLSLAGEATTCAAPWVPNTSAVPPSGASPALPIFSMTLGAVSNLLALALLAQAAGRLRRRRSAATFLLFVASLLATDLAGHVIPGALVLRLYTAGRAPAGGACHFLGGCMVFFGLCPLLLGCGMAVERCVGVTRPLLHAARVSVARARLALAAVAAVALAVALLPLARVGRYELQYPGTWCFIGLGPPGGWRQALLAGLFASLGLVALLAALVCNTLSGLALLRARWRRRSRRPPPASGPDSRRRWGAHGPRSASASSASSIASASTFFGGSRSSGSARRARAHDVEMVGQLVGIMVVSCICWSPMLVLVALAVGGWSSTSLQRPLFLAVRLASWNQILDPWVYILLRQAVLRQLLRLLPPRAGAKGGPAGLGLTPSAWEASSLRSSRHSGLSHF
# Description: (§1) The above compounds were tested for PG antagonist activity as follows using human recombinant prostanoid receptor (DP1, EP1-4, FP, IP and TP) stable cell lines:
# (§2) In order to measure the response of Gs and Gi coupled prostanoid receptors as a Ca^2+ signal, chimeric G protein cDNAs were used. Stable cell lines over-expressing human prostanoid DP1, EP1-4, FP, IP, and TP receptors were established as follows:
# (§3) Briefly, human prostanoid DP1, EP2, and EP4 receptor cDNAs were co-transfected with chimeric Gqs cDNA containing a haemagglutanin (HA) epitope; human prostanoid EP3 receptors were co-transfected with chimeric Gqi-HA; human EP1, FP, IP, and TP receptor cDNAs were expressed with no exogenous G-proteins. Gqs and Gqi chimeric cDNAs (Molecular Devices, Sunnyvale, Calif., U.S.A.), as well as cDNAs of prostanoid receptors, were cloned into a pCEP4 vector with a hygromycin B selection marker. Transfection into HEK-293 EBNA (Epstein-Barr virus nuclear antigen) cells was achieved by the FuGENE 6 transfection Reagent (Roche Applied Science, Indianapolis, Ind., USA). Stable transfectants were selected according to hygromycin resistance. Because Gqs and Gqi contained an HA epitope, G-protein expression was detected by Western blotting analysis using anti-mouse HA monoclonal antibody and horseradish peroxidase (HRP)-conjugated secondary antibody, while functional expression of prostanoid receptors was detected by FLIPR screening (Matias et al., 2004). These stable cell lines were validated using previously published antagonists at 10 μM against serial dilutions of standard agonists by FLIPR functional assays for Ca^2− Signaling (as described below).
# (§4) Ca^2+ signaling studies were performed using a FLIPR TETRA system (Molecular Devices, Sunnyvale, Calif., USA) in the 384-format. This is a high-throughput instrument for cell-based assays to monitor Ca^2+ signaling associated with GPCRs and ion channels. Cells were seeded at a density of 5×10^4 cells/well in BioCoat poly-D-lysine coated, black wall, clear bottom 384-well plates (BD Biosciences, Franklin lakes, N.J., USA) and allowed to attach overnight in an incubator at 37° C. The cells were then washed twice with HBSS-HEPES buffer (Hanks' balanced salt solution without bicarbonate and phenol red, 20 mM HEPES, pH 7.4) using an ELx405 Select CW Microplate Washer (BioTek, Winooski, Vt., USA). After 60 min of dye-loading in the dark using the Ca^2+-sensitive dye Fluo-4AM (Invitrogen, Carlsbad, Calif., USA), at a final concentration of 2×10^−6M, the plates were washed 4 times with HBSS-HEPES buffer to remove excess dye and leaving 50 μl of buffer in each well. The plates were then placed in the FLIPR TETRA instrument and allowed to equilibrate at 37° C. AGN-211377 was added in a 25 μl volume to each well to give final concentrations of 0.1 μM, 0.3 μM, 1 μM, 3 μM, 10 μM, and 30 μM; or 0.067 μM, 0.1 μM, 0.2 μM, 0.3 μM, 0.67 μM, and 1 μM for cells over-expressing TP receptors. After 4.5 minutes, a 7-point serial dilution of the standard agonist for the corresponding receptor, in a 25 μl volume was injected at the final concentrations from 10^−11M to 10^−5M in 10-fold serial dilution increments for cells expressing human recombinant DP1, EP1, EP2, EP3, EP4, FP, and IP receptors. The dose range for the standard agonist for human recombinant TP receptors was from 10^−12M to 10^−6M. HBSS-HEPES buffer was used as the negative control for the standard agonists. Cells were excited with LED (light emitting diode) excitation at 470-495 nm and emission was measured through an emission filter at 515-575 nm. Assay plates were read for 3.5 minutes using the FLIPR^TETRA. The peak increase in fluorescence intensity was recorded for each well. On each plate, negative controls, dose response of positive controls, and co-treatments of antagonist-agonist for each dose were in triplicates. Standard agonists were as follows: DP=BW 245C, EP1-EP4=PGE2, FP=17-phenyl-PGF2α, IP=Cicaprost, and TP=U-46619. […]
# [2] = target: T2, human recombinant prostanoid EP2 receptor (Homo sapiens, UniProt P43116); experiment: FLIPR Ca2+ signaling, PG antagonist activity, EP2; conditions: antagonism of standard agonist PGE2, HEK-293 EBNA stable cells with chimeric Gqs
# T2 construct: expressed in transfected cells; co-transfected with chimeric Gqs-HA
# T2 sequence (P43116 whole entry): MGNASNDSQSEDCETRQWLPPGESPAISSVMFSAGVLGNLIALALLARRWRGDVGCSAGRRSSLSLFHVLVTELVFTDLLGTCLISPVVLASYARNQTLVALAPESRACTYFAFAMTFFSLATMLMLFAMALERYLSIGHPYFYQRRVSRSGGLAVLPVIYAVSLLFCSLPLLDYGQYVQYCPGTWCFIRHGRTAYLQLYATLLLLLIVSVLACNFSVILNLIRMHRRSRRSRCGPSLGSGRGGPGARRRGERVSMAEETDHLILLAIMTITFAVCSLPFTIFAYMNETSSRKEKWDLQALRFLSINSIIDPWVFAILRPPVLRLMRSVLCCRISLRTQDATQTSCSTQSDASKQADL
# Description: as §1, §2, §3, §4
# [3] = target: T3, human recombinant prostanoid TP receptor (Homo sapiens, UniProt P21731); experiment: FLIPR Ca2+ signaling, PG antagonist activity, TP; conditions: antagonism of standard agonist U-46619, HEK-293 EBNA stable cells
# T3 construct: expressed in transfected cells
# T3 sequence (P21731 1-343): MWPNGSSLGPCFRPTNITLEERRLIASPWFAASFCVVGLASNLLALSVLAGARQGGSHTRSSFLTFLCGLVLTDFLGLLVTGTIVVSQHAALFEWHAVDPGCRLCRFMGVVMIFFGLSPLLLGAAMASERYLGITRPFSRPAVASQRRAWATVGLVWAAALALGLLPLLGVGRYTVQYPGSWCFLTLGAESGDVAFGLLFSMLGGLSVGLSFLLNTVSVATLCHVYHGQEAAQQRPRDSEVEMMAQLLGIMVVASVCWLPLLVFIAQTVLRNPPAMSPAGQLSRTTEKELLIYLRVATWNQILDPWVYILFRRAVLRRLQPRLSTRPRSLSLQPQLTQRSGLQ
# Description: as §1, §2, §3, §4
SMILES,Kb [1],Kb [2],Kb [3]
"CCC(CC)COc1ccc(Br)cc1Cn1ncc(CC(=O)O)c1C [Example 1, {1-[5-bromo-2-(2-ethyl-butoxy)-benzyl]-5-methyl-1H-pyrazol-4-yl}-acetic acid]",170 nM,≥ 10000 nM,3 nM
"CCC(CC)COc1ccc(Br)cc1Cn1ncc(C(=O)O)c1C [Example 2, 1-[5-bromo-2-(2-ethyl-butoxy)-benzyl]-5-methyl-1H-pyrazole-4-carboxylic acid]",33 nM,≥ 10000 nM,12 nM
CCC(CC)COc1ccc(Br)cc1Cn1cc(C(=O)O)c(C)n1 [Example 3],30 nM,≥ 10000 nM,30 nM
"CCC(CC)COc1ccc(Cl)cc1Cn1cc(C(=O)O)cn1 [Example 4, 1-[5-chloro-2-(2-ethyl-butoxy)-benzyl]-1H-pyrazole-4-carboxylic acid]",140 nM,≥ 10000 nM,100 nM
"CCC(CC)COc1ccc(Cl)cc1Cn1nc(C)c(C(=O)O)c1C [Example 5, 1-[5-chloro-2-(2-ethyl-butoxy)-benzyl]-3,5-dimethyl-1H-pyrazole-4-carboxylic acid]",20 nM,≥ 10000 nM,18 nM
"CCCc1nn(Cc2cc(Cl)ccc2OCC(CC)CC)cc1C(=O)O [Example 6, 1-[5-chloro-2-(2-ethyl-butoxy)-benzyl]-3-propyl-1H-pyrazole-4-carboxylic acid]",1500 nM,8600 nM,500 nM
"CCCc1c(C(=O)O)cnn1Cc1cc(Cl)ccc1OCC(CC)CC [Example 7, 1-[5-chloro-2-(2-ethyl-butoxy)-benzyl]-5-propyl-1H-pyrazole-4-carboxylic acid]",640 nM,≥ 10000 nM,150 nM
"CCC(CC)COc1ccc(C(F)(F)F)cc1Cn1ncc(C(=O)O)c1C [Example 8, 1-[2-(2-ethyl-butoxy)-5-trifluoromethyl-benzyl]-5-methyl-1H-pyrazole-4-carboxylic acid]",40 nM,≥ 10000 nM,45 nM
"CCC(CC)COc1ccc(C(F)(F)F)cc1Cn1cc(C(=O)O)c(C)n1 [Example 9, 1-[2-(2-ethyl-butoxy)-5-trifluoromethyl-benzyl]-3-methyl-1H-pyrazole-4-carboxylic acid]",440 nM,≥ 10000 nM,440 nM
"CCC(CC)COc1ccc(Cl)cc1Cn1ncc(C(=O)O)c1C [Example 10, 1-[5-chloro-2-(2-ethyl-butoxy)-benzyl]-5-methyl-1H-pyrazole-4-carboxylic acid]",50 nM,≥ 10000 nM,6 nM
"Cc1c(C(=O)O)cnn1Cc1cc(Cl)ccc1OCC(C)C [Example 11, 1-(5-chloro-2-isobutoxy-benzyl)-5-methyl-1-pyrazole-4-carboxylic acid]",30 nM,≥ 10000 nM,80 nM
"Cc1c(C(=O)O)cnn1Cc1cc(Cl)ccc1OCC1CCCC1 [Example 12, 1-(5-chloro-2-cyclopentylmethoxy-benzyl)-5-methyl-1H-pyrazole-4-carboxylic acid]",30 nM,≥ 10000 nM,40 nM
"Cc1c(C(=O)O)cnn1Cc1cc(Br)ccc1OCC(C)C [Example 13, 1-(5-bromo-2-isobutoxy-benzyl)-5-methyl-1H-pyrazole-4-carboxylic acid]",30 nM,≥ 10000 nM,20 nM
"Cc1c(C(=O)O)cnn1Cc1cc(Br)ccc1OCC(C)(C)C [Example 14, 1-[5-bromo-2-(2,2-dimethyl-propoxy)-benzyl]-5-methyl-1H-pyrazole-4-carboxylic acid]",30 nM,≥ 10000 nM,20 nM
"CCC(CC)COc1ccc(OC(F)(F)F)cc1Cn1ncc(C(=O)O)c1C [Example 15, 1-[2-(2-ethyl-butoxy)-5-trifluoromethoxy-benzyl]-5-methyl-1H-pyrazole-4-carboxylic acid]",45 nM,≥ 10000 nM,8 nM
"CCC(CC)COc1ccc(Br)cc1Cn1ncc(C(=O)O)c1N [Example 16, 5-amino-1-[5-bromo-2-(2-ethyl-butoxy)-benzyl]-1H-pyrazole-4-carboxylic acid]",60 nM,≥ 10000 nM,50 nM
